Results from patent US10117430B2, “Malononitrile compounds for controlling animal pests” (BASF SE, priority 2012, dated 2018).

Key:
Type in all cases: in vivo
[1] = tested on: Cowpea Aphid (Aphis craccivora); assay: B.1 Cowpea aphid spray test on potted cowpea plants; conditions: in comparison with untreated controls, population reduction assessed after 24, 72 and 120 hours
Experimental: B.1 Cowpea Aphid (Aphis craccivora)
The active compounds were formulated in 50:50 (v/v) acetone:water. The test solution was prepared at the day of use. Potted cowpea plants colonized with approximately 100-150 aphids of various stages were sprayed after the pest population has been recorded. Population reduction was assessed after 24, 72, and 120 hours.

[2] = tested on: Tobacco Budworm (Heliothis virescens); assay: B.8 Tobacco budworm test on sprayed cotton plants; conditions: 96 h, in comparison with untreated controls, 4 days after treatment
Experimental: B.8 Tobacco Budworm (Heliothis virescens) I
The active compounds were formulated in cyclohexanone as a 10,000 ppm solution supplied in tubes. The tubes were inserted into an automated electrostatic sprayer equipped with an atomizing nozzle and they served as stock solutions for which lower dilutions were made in 50% acetone:50% water (v/v). A nonionic surfactant (Kinetic®) was included in the solution at a volume of 0.01% (v/v). Cotton plants were grown 2 plants to a pot and selected for treatment at the cotyledon stage. Test solutions were sprayed onto the foliage by an automated electrostatic plant sprayer equipped with an atomizing spray nozzle. The plants were dried in the sprayer fume hood and then removed from the sprayer. Each pot was placed into perforated plastic bags with a zip closure. About 10 to 11 budworm larvae were placed into the bag and the bags zipped closed. Test plants were maintained in a growth room at about 25° C. and about 20-40% relative humidity for 4 days, avoiding direct exposure to fluorescent light (24 hour photoperiod) to prevent trapping of heat inside the bags. Mortality and reduced feeding were assessed 4 days after treatment, compared to untreated control plants.

[3] = tested on: Rice brown plant hopper (Nilaparvata lugens); assay: B.11 Rice brown plant hopper test on sprayed rice seedlings; conditions: in comparison with untreated controls, after 72 hours
Outline: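 Compounds formulated in 50:50 acetone:water with 0.1% vol/vol surfactant and sprayed onto potted rice seedlings. Air-dried plants were caged, infested with 10 adults and held at about 28-29 °C, 50-60% RH. Percent mortality scored after 72 hours.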

[4] = tested on: Vetch Aphid (Megoura viciae); assay: B.7 Vetch aphid test on broad bean leaf disks; conditions: foliar, 120 h, in comparison with untreated controls, 5 days
Outline: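 Broad bean leaf disks sprayed with compounds in 25% DMSO/75% water at several concentrations, two replicates, then air-dried. Infested with 5-8 adult Megoura viciae and held 5 days at about 23±1 °C and 50±5% RH. Mortality and fecundity scored visually.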

[5] = tested on: Yellow Fever Mosquito (Aedes aegypti); assay: whole plant or invertebrate; conditions: 48 h, in comparison with untreated controls, larval mortality after 2 days
Outline: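 Freshly hatched larvae (5-15 per well) in 200 μl tap water; compounds formulated in 75% water/25% DMSO and sprayed at 2.5 μl per well at several concentrations, two replicates. Incubated 2 days at 28±1° C., 80±5% RH; larval mortality scored visually.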

[6] = tested on: Boll Weevil (Anthonomus grandis); assay: B.9 Boll weevil microtiter diet test, egg and larval mortality; conditions: 120 h, in comparison with untreated controls, egg and larval mortality after 5 days
Outline: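 Insect diet carrying 20-30 A. grandis eggs per well was sprayed with compounds formulated in 75% water/25% DMSO, at various concentrations with two replicates. Plates were held at about 23±1° C and 50±5% RH for 5 days. Egg and larval mortality were then scored visually.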

[7] = tested on: Orchid Thrips (Dichromothrips corbetti); assay: B.4 Orchid thrips floral-immersion test; conditions: 96 h, in comparison with untreated controls, after 4 days
Outline: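 Orchid flowers dipped in 300 ppm compound (acetone:water 1:1, 0.01% surfactant), dried, then caged with 10-15 adult D. corbetti from a lab colony. Held under continuous light at about 28° C. Live thrips counted after 4 days; mortality extrapolated from pre-treatment numbers.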

[8] = tested on: Green Soldier Stink Bug (Nezara viridula); assay: B.15 Green soldier stink bug test on sprayed soybean pods; conditions: 120 h, in comparison with untreated controls, after 5 days
[9] = tested on: Green Peach Aphid (Myzus persicae); assay: B.3 Green peach aphid systemic test, artificial diet under membrane; conditions: 72 h, concentration of the test solution 2500 mg/L, 3 days
Outline: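 Systemic uptake from artificial liquid diet beneath a membrane, compound formulated in 75% water/25% DMSO and added to diet at several concentrations, two replicates. 5-8 adult aphids fed on treated diet for 3 days at about 23±1° C. and 50±5% RH. Mortality and fecundity scored visually.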

[10] = tested on: Green Peach Aphid (Myzus persicae); assay: B.13 Green peach aphid test on sprayed bell pepper plants; conditions: 120 h, in comparison with untreated controls, after 5 days
Text: B.13 Green Peach Aphid (Myzus persicae)
The active compounds were formulated in cyclohexanone as a 10,000 ppm solution supplied in tubes. The tubes were inserted into an automated electrostatic sprayer equipped with an atomizing nozzle and they served as stock solutions for which lower dilutions were made in 50% acetone:50% water (v/v). A nonionic surfactant (Kinetic®) was included in the solution at a volume of 0.01% (v/v). Bell pepper plants at the first true-leaf stage were infested prior to treatment by placing heavily infested leaves from the main colony on top of the treatment plants. Aphids were allowed to transfer overnight to accomplish an infestation of 30-50 aphids per plant and the host leaves were removed. The infested plants were then sprayed by an automated electrostatic plant sprayer equipped with an atomizing spray nozzle. The plants were dried in the sprayer fume hood, removed, and then maintained in a growth room under fluorescent lighting in a 24-hr photoperiod at about 25° C. and about 20-40% relative humidity. Aphid mortality on the treated plants, relative to mortality on untreated control plants, was determined after 5 days.

[11] = tested on: Silverleaf Whitefly (Bemisia argentifolii); assay: B.5 Silverleaf whitefly test on sprayed cotton plants; conditions: 72 h, in comparison with untreated controls, 3 days after treatment
Outline: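 Cotyledon-stage cotton plants were electrostatically sprayed with compound diluted from a 10,000 ppm cyclohexanone stock into 50% acetone/water with 0.01% nonionic surfactant. After drying, 10–12 adult whiteflies (3–5 days old) were released onto each plant. Mortality was scored after 3 days at 25 °C and 20–40% RH against untreated plants.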

[12] = tested on: Southern Armyworm (Spodoptera eridania); assay: B.6 Southern armyworm test on sprayed lima bean plants; conditions: 96 h, in comparison with untreated controls, 4 days after treatment
Experimental: B.6 Southern Armyworm (Spodoptera eridania)
The active compounds were formulated in cyclohexanone as a 10,000 ppm solution supplied in 1.3 ml ABgene® tubes. These tubes were inserted into an automated electrostatic sprayer equipped with an atomizing nozzle and they served as stock solutions for which lower dilutions were made in 50% acetone:50% water (v/v). A nonionic surfactant (Kinetic®) was included in the solution at a volume of 0.01% (v/v). Lima bean plants (variety Sieva) were grown 2 plants to a pot and selected for treatment at the 1st true leaf stage. Test solutions were sprayed onto the foliage by an automated electrostatic plant sprayer equipped with an atomizing spray nozzle. The plants were dried in the sprayer fume hood and then removed from the sprayer. Each pot was placed into perforated plastic bags with a zip closure. Ten to 11 armyworm larvae were placed into the bag and the bags zipped closed. Test plants were maintained in a growth room at 25° C. and 20-40% relative humidity for 4 days, avoiding direct exposure to fluorescent light (24 hour photoperiod) to prevent trapping of heat inside the bags. Mortality and reduced feeding were assessed 4 days after treatment, compared to untreated control plants.

[13] = tested on: Cotton Aphid (Aphis gossypii, Mixed Life Stages); assay: B.14 Cotton aphid test on sprayed cotton plants; conditions: 120 h, in comparison with untreated controls, after 5 days
Experimental: B.14 Cotton Aphid (Aphis gossypii, Mixed Life Stages)
The active compounds were formulated in cyclohexanone as a 10,000 ppm solution supplied in 1.3 ml ABgene® tubes. These tubes were inserted into an automated electrostatic sprayer equipped with an atomizing nozzle and they served as stock solutions for which lower dilutions were made in 50% acetone:50% water (v/v). A nonionic surfactant (Kinetic®) was included in the solution at a volume of 0.01% (v/v). Cotton plants at the cotyledon stage were infested with aphids prior to treatment by placing a heavily infested leaf from the main aphid colony on top of each cotyledon. Aphids were allowed to transfer overnight to accomplish an infestation of 80-100 aphids per plant and the host leaf was removed. The infested plants were then sprayed by an automated electrostatic plant sprayer equipped with an atomizing spray nozzle. The plants were dried in the sprayer fume hood, removed from the sprayer, and then maintained in a growth room under fluorescent lighting in a 24-hr photoperiod at 25° C. and 20-40% relative humidity. Aphid mortality on the treated plants, relative to mortality on untreated control plants, was determined after 5 days.

[14] = tested on: Mediterranean Fruitfly (Ceratitis capitata); assay: B.2 Mediterranean fruitfly microtiter diet test, egg and larval mortality; conditions: 120 h, in comparison with untreated controls, egg and larval mortality after 5 days
Outline: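 Microtiter plates held insect diet with 50-80 C. capitata eggs; compounds in 75% water/25% DMSO were sprayed onto the diet at various concentrations, two replicates. Plates kept about 5 days at 28±1 °C and 80±5% RH, then egg and larval mortality scored visually.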

[15] = tested on: Red Spider Mite (Tetranychus kanzawai); assay: B.10 Red spider mite test on sprayed cowpea beans; conditions: in comparison with untreated controls, 72 hours after treatment
Experimental: B.10 Red Spider Mite (Tetranychus kanzawai)
The active compound is dissolved at the desired concentration in a mixture of 1:1 (vol:vol) distilled water:acetone. Add surfactant (Alkamuls® EL 620) at the rate of 0.1% (vol/vol). The test solution is prepared at the day of use. Potted cowpea beans of 7-10 days of age were cleaned with tap water and sprayed with 5 ml of the test solution using air driven hand atomizer. The treated plants were allowed to air dry and afterwards inculated with 20 or more mites by clipping a cassava leaf section with known mite population. Treated plants were placed inside a holding room at about 25-27° C. and about 50-60% relative humidity. Percent mortality was assessed 72 hours after treatment.

N#CC(C#N)(Cc1ccc(C(F)(F)F)nc1)c1ccccc1 [II-3]
≥ 75%: mortality at 500 ppm [1] | mortality at 2500 ppm [2] | mortality at 300 ppm [3] | mortality at 2500 ppm [4] | mortality at 2500 ppm [5] | mortality at 2500 ppm [6] | mortality at 500 ppm [7] | mortality at 500 ppm [8]

CC(c1ccc(F)cn1)C(C#N)(C#N)c1ccccc1 (stereo not drawn) [II-8]
≥ 75%: mortality at 500 ppm [1] | mortality at 300 ppm [3] | mortality at 2500 µg/mL [9] | mortality at 2500 ppm [5] | mortality at 300 ppm [10] | mortality at 2500 ppm [6] | mortality at 500 ppm [11] | mortality at 300 ppm ([12]; 300 ppm) | mortality at 500 ppm ([12]; 500 ppm) | mortality at 300 ppm [13]

N#CC(C#N)(Cc1ccc(F)cn1)c1ccccc1 [II-11]
≥ 75%: mortality at 2500 ppm [2] | mortality at 2500 µg/mL [9]

N#CC(C#N)(Cc1cnc(C(F)(F)F)cn1)c1ccccc1 [II-26]
≥ 75%: mortality at 500 ppm [1] | mortality at 2500 ppm [2] | mortality at 2500 ppm [4] | mortality at 2500 ppm [5] | mortality at 2500 ppm [6] | mortality at 500 ppm [11] | mortality at 500 ppm [7] | mortality at 2500 ppm [14] | mortality at 500 ppm [15]

N#CC(C#N)(Cc1ccc(F)nc1F)c1cc(F)cc(F)c1 [II-52]
≥ 75%: mortality at 2500 ppm [2] | mortality at 2500 µg/mL [9] | mortality at 2500 ppm [6] | mortality at 500 ppm [7]
